Experiments:
human PPARγ = molecular target: T1, human PPARγ (Homo sapiens, UniProt P37231); assay: PPARγ ligand activity, GAL4-hPPARγ luciferase reporter assay in CV-1 cells; assay type: cell-based; details: for PPARγ ligand activity: 24 h, relative to non-treatment control (DMSO) = 100, average ± standard error
T1 construct: expressed in transfected cells; host or cells: CV-1 cells (African green monkey kidney)
T1 sequence (P37231 204-505): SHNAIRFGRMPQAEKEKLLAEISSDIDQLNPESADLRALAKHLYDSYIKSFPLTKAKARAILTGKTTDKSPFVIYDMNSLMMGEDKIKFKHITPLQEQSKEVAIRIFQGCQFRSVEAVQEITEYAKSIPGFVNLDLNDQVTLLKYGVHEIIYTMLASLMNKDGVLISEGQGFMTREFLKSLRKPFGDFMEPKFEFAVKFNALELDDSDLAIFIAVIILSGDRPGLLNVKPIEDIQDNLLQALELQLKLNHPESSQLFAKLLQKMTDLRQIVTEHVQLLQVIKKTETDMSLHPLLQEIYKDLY
Protocol: (§1) CV-1 cells (cultured cells derived from kidneys of male African green monkeys) were implanted on 24-well culture plates so as to be […] and cultured at 37° C. in 5% CO2 for 24 hours. As a medium, DMEM (Dulbecco's Modified Eagle Medium; manufactured by GIBCO) containing 10% FBS (fetal bovine serum) and a 10 mg/mL penicillin streptomycin solution was used. Using the Lipofectamine system (trade name; manufactured by Invitrogen Corporation), pM-hPPARγ and p4× UASg-tk-luc were transfected. The above-noted pM-hPPARγ was a chimeric protein-expression plasmid binding GAL4 gene (amino acid sequence 1-147) and human PPARγ ligand-binding site gene (amino acid sequence 204-505), whereas the above-noted p4× UASg-tk-luc was a reporter plasmid containing four copies of a responsive element (UAS) of GAL 4 upstream of a luciferase gene. About 24 hours after the transfection, samples of aurapten at respective concentrations (0.1, 1.0, 10, 50 and 100 μM) were added to the above-described media, followed by 24 hour incubation. The above-noted samples were prepared by dissolving aurapten in dimethyl sulfoxide (DMSO). Instead of the aurapten, DMSO was added to non-treated control media. After the incubation, measurement was made using a Dual-Luciferase Reporter Gene Assay system (trade name; manufactured by Promega Corporation).
(§2) Similarly to the measurement group, as a control group, pM (a plasmid from which PPARγ ligand-binding site gene was removed) was used for measurement instead of pM-hPPARγ. For each sample, the ratio between average luminescence intensities of the measurement group and the control group (n=4) (measurement group/control group) was calculated, and an activity relative to the non-treatment control was determined as the PPARγ ligand activity of the sample.

PPARα = molecular target: T2, PPARα (Homo sapiens, UniProt Q07869); assay: PPARα ligand activity, GAL4-hPPARα luciferase reporter assay in CV-1 cells; assay type: cell-based; details: for PPARα ligand activity: 24 h, relative to non-treatment control (DMSO) = 100, average ± standard error
T2 construct: GAL4 (pM vector); expressed in transfected cells; host or cells: CV-1 cells (African green monkey kidney)
T2 sequence (Q07869 1-468): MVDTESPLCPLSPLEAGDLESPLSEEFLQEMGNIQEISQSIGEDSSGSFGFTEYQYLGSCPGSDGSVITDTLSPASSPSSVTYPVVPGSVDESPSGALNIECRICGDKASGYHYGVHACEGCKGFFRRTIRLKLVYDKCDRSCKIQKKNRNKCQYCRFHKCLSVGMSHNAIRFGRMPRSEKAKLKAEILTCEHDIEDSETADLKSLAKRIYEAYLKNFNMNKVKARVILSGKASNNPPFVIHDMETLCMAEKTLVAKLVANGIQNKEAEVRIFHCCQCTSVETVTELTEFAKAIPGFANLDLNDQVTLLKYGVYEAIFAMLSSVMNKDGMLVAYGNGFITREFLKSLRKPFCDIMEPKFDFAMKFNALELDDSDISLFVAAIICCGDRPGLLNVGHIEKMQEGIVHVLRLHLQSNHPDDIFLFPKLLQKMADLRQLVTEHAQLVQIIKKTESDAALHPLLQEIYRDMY
Protocol: as §1, §2
The PPARα ligand activity of aurapten was measured similarly to Example 1 except that pM-hPPARα was used instead of pM-hPPARγ and the aurapten concentrations were set to 0.1, 1.0, 10, 50 and 80 μM.

## CC(C)=CCC/C(C)=C/COc1ccc2ccc(=O)oc2c1 [Aurapten, aurapten]
Human PPARγ; 0.1-100 μM, increased along with the concentration
  effect on PPARγ activity (in words): improved the activity of PPARγ
Human PPARγ; aurapten 0.1 μM
  PPARγ ligand activity: 128 ± 8.5
Human PPARγ; aurapten 1.0 μM
  PPARγ ligand activity: 113 ± 6.9
Human PPARγ; aurapten 10 μM
  PPARγ ligand activity: 146 ± 17.0
Human PPARγ; aurapten 50 μM
  PPARγ ligand activity: 245 ± 56.1
Human PPARγ; aurapten 100 μM
  PPARγ ligand activity: 641 ± 84.2
PPARα; 0.1-80 μM, increased in keeping with the concentration
  effect on PPARα activity (in words): improved the activity of PPARα
PPARα; aurapten 0.1 μM
  PPARα ligand activity: 234 ± 39.4
PPARα; aurapten 1.0 μM
  PPARα ligand activity: 139 ± 38.3
PPARα; aurapten 10 μM
  PPARα ligand activity: 302 ± 98.2
PPARα; aurapten 50 μM
  PPARα ligand activity: 409 ± 27.8
PPARα; aurapten 80 μM
  PPARα ligand activity: 1052 ± 232.9

Reference: patent publication US8802723B2, “Metabolic syndrome-improving agent and medicine, supplement, functional food and food additive containing the same” (ARKRAY, Inc., priority 2005, dated 2014)
